Test results reported in ChEMBL document CHEMBL1139918, “Novel series of substituted biphenylmethyl urea derivatives as MCH-R1 antagonists for the treatment of obesity” (Bioorg Med Chem, 2007).
Values belong to the molecule of their own block, whether it stands above or below them.

How the values were obtained:
[1] = biological target: T1, Melanin-concentrating hormone receptor 1 (Homo sapiens, UniProt Q99705); conditions: HEK293
Description: Antagonist activity at human MCH1 receptor expressed in HEK cells after 45 mins by [35S]GTP-gamma-S binding assay

[2] = biological target: T1, Melanin-concentrating hormone receptor 1; test: Displacement of [3H]SNAP from human MCH1 receptor expressed in HEK cells; assay type: cell-based, HEK293
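Throughout, for pKb: antagonism measured by [35S]GTPγS binding in HEK cells carrying human MCH1 receptor, 45 min incubation.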

T1 sequence (Q99705 whole entry): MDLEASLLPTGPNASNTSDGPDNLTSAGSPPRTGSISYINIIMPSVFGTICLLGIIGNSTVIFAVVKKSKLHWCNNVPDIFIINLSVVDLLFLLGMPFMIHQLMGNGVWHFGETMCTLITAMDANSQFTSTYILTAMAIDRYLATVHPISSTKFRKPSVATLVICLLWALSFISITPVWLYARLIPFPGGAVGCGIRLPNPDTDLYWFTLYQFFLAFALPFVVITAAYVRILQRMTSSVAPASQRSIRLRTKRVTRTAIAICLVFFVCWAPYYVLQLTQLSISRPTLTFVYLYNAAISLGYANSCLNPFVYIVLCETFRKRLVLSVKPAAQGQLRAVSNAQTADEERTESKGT

pKb [1]: 6.65 | Ki ([2]; read-out: Ki): 167 nM
Compound: CCC(CO)(CO)NC(=O)N(CCC1CCN(Cc2ccc(C)cc2)CC1)Cc1ccc(-c2ccccc2OC)cc1

pKb [1]: 6.93 | Ki ([2]; read-out: Ki): 143 nM
Compound: CCC(CO)(CO)NC(=O)N(CCC1CCN(Cc2ccc(C)cc2)CC1)Cc1ccc(-c2ccc(OC)cc2)cc1

pKb [1]: 5.41 | Ki ([2]; read-out: Ki): 769 nM
Compound: CCC(CO)(CO)NC(=O)N(CCC1CCN(Cc2ccc(C)cc2)CC1)Cc1ccc(-c2cccc(C#N)c2)cc1

pKb [1]: 6.54 | Ki ([2]; read-out: Ki): 149 nM
Compound: CCC(CO)(CO)NC(=O)N(CCC1CCN(Cc2ccc(C)cc2)CC1)Cc1ccc(-c2ccc(F)cc2)cc1

pKb [1]: 7.38 | Ki ([2]; read-out: Ki): 96.6 nM
Compound: Cc1ccc(CN2CCC(CCN(Cc3ccc(-c4ccc(F)cc4)cc3)C(=O)NC(C)(C)CO)CC2)cc1

pKb [1]: 6.19 | Ki ([2]; read-out: Ki): 595 nM
Compound: COc1ccc(-c2ccc(CN(CCC3CCN(Cc4ccc(C)cc4)CC3)C(=O)NC(C)(C)COC(C)=O)cc2)cc1

pKb [1]: 6.83 | Ki ([2]; read-out: Ki): 173 nM
Compound: CCC(CO)(CO)NC(=O)N(CCC1CCN(Cc2ccc(C)cc2)CC1)Cc1ccc(-c2ccccc2)cc1

pKb [1]: 6.86 | Ki ([2]; read-out: Ki): 170 nM
Compound: CCC(COC(C)=O)(COC(C)=O)NC(=O)N(CCC1CCN(Cc2ccc(C)cc2)CC1)Cc1ccc(-c2ccc(OC)cc2)cc1

pKb [1]: 6.33 | Ki ([2]; read-out: Ki): 273 nM
Compound: COc1ccc(-c2ccc(CN(CCC3CCN(Cc4ccc(C)cc4)CC3)C(=O)NC(C)C)cc2)cc1

pKb [1]: 7.06 | Ki ([2]; read-out: Ki): 204 nM
Compound: COc1ccc(-c2ccc(CN(CCC3CCN(Cc4ccc(C)cc4)CC3)C(=O)NC(C)(C)CO)cc2)cc1

More lines, now with the values behind:

Compound: COc1ccc(-c2ccc(CNC(=O)NC3CCN(Cc4ccc(C)cc4)CC3)cc2)cc1
pKb [1]: 6.36 | Ki ([2]; read-out: Ki): 1460 nM

Compound: CC(=O)OCC(C)(C)NC(=O)N(CCC1CCN(Cc2ccc(C)cc2)CC1)Cc1ccc(-c2ccc(F)cc2)cc1
pKb [1]: 6.39 | Ki ([2]; read-out: Ki): 421 nM

Compound: CCC(COC(C)=O)(COC(C)=O)NC(=O)N(CCC1CCN(Cc2ccc(C)cc2)CC1)Cc1ccc(-c2ccccc2)cc1
pKb [1]: 6.58 | Ki ([2]; read-out: Ki): 388 nM

Compound: Cc1ccc(CN2CCC(CCN(Cc3ccc(-c4ccccc4)cc3)C(=O)NC(C)C)CC2)cc1
Ki ([2]; read-out: Ki): 258 nM

Compound: CCC(COC(C)=O)(COC(C)=O)NC(=O)N(CCC1CCN(Cc2ccc(C)cc2)CC1)Cc1ccc(-c2ccc(F)cc2)cc1
pKb [1]: 6.71 | Ki ([2]; read-out: Ki): 214 nM

Compound: CC(=O)OCC(C)(C)NC(=O)N(CCC1CCN(Cc2ccc(C)cc2)CC1)Cc1ccc(-c2cccc(C#N)c2)cc1
pKb [1]: 6.63 | Ki ([2]; read-out: Ki): 254 nM

Compound: CC(=O)OCC(C)(C)NC(=O)N(CCC1CCN(Cc2ccc(C)cc2)CC1)Cc1ccc(-c2ccccc2)cc1
pKb [1]: 6.43 | Ki ([2]; read-out: Ki): 947 nM

Compound: CCC(COC(C)=O)(COC(C)=O)NC(=O)N(CCC1CCN(Cc2ccc(C)cc2)CC1)Cc1ccc(-c2cccc(C#N)c2)cc1
Ki ([2]; read-out: Ki): 1080 nM

Compound: Cc1ccc(CN2CCC(CCN(Cc3ccc(-c4ccccc4)cc3)C(=O)NC(C)(C)CO)CC2)cc1
pKb [1]: 6.2 | Ki ([2]; read-out: Ki): 144 nM

Compound: COc1ccccc1-c1ccc(CN(CCC2CCN(Cc3ccc(C)cc3)CC2)C(=O)NC(C)(C)CO)cc1
pKb [1]: 6.88 | Ki ([2]; read-out: Ki): 251 nM

Compound: Cc1ccc(CN2CCC(NC(=O)NCc3ccc(-c4cccc(C#N)c4)cc3)CC2)cc1
pKb [1]: 6.38 | Ki ([2]; read-out: Ki): 186 nM

Compound: Cc1ccc(CN2CCC(NC(=O)NCc3ccc(-c4ccc(F)cc4)cc3)CC2)cc1
pKb [1]: 6.71 | Ki ([2]; read-out: Ki): 545 nM | Ki ([2]; read-out: Log Ki (converted)): 543 nM

Compound: Cc1ccc(CN2CCC(NC(=O)NCc3ccc(-c4ccccc4)cc3)CC2)cc1
pKb [1]: 5.97 | Ki ([2]; read-out: Ki): 2640 nM | Ki ([2]; read-out: Log Ki (converted)): 2660 nM

Compound: COc1ccccc1-c1ccc(CN(CC(=O)C(C)(C)O)C(=O)NC2CCN(Cc3ccc(C)cc3)CC2)cc1
pKb [1]: 5.43 | Ki ([2]; read-out: Ki): 6050 nM

Compound: Cc1ccc(CN2CCC(CCN(Cc3ccc(-c4cccc(C#N)c4)cc3)C(=O)NC(C)(C)CO)CC2)cc1
pKb [1]: 7.08 | Ki ([2]; read-out: Ki): 43 nM

Compound: Cc1ccc(CN2CCC(CCN(Cc3ccc(-c4cccc(C#N)c4)cc3)C(=O)NC(C)C)CC2)cc1
pKb [1]: 6 | Ki ([2]; read-out: Ki): 509 nM

Compound: COc1ccccc1-c1ccc(CNC(=O)NC2CCN(Cc3ccc(C)cc3)CC2)cc1
pKb [1]: 6.19 | Ki ([2]; read-out: Ki): 425 nM

Compound: Cc1ccc(CN2CCC(NC(=O)N(CC(=O)C(C)(C)O)Cc3ccc(-c4ccc(F)cc4)cc3)CC2)cc1
pKb [1]: 5.34 | Ki ([2]; read-out: Ki): 5860 nM

Compound: COc1ccccc1-c1ccc(CN(CCC2CCN(Cc3ccc(C)cc3)CC2)C(=O)NC(C)C)cc1
pKb [1]: < 5

Compound: COc1ccccc1-c1ccc(CN(CCC2CCN(Cc3ccc(C)cc3)CC2)C(=O)NC(C)(C)COC(C)=O)cc1
pKb [1]: 6.14 | Ki ([2]; read-out: Ki): 215 nM

Compound: CCC(COC(C)=O)(COC(C)=O)NC(=O)N(CCC1CCN(Cc2ccc(C)cc2)CC1)Cc1ccc(-c2ccccc2OC)cc1
Ki ([2]; read-out: Ki): 1200 nM

Compound: Cc1ccc(CN2CCC(NC(=O)N(CC(=O)C(C)(C)O)Cc3ccc(-c4cccc(C#N)c4)cc3)CC2)cc1
pKb [1]: 5.3 | Ki ([2]; read-out: Ki): 6380 nM

Compound: Cc1ccc(CN2CCC(CCN(Cc3ccc(-c4ccc(F)cc4)cc3)C(=O)NC(C)C)CC2)cc1
pKb [1]: 6.42 | Ki ([2]; read-out: Ki): 314 nM | Ki ([2]; read-out: Log Ki (converted)): 313 nM

Compound: COc1ccc(-c2ccc(CN(CC(=O)C(C)(C)O)C(=O)NC3CCN(Cc4ccc(C)cc4)CC3)cc2)cc1
pKb [1]: < 5
